# “Also recorded” adds a separate entry of the source.
# Key:
# ileal transcriptome = test: Germ-free mice monocolonized with LGG, trp+ or trp− diet: bulk RNA-sequencing of ileum; assay type: in vivo, mouse
# Protocol: Gnotobiotic study. After 5 days of acclimatization under GF conditions, two cages of GF mice (n=10) were fed with a trp-free diet and another 2 cages with a trp-sufficient diet. Purified diets were sterilized by double-irradiation (Research Diets, New Brunswick, NJ) then stored in −80° C. Two weeks afterward, five mice from the trp-deficient and five from trp-sufficient were gavaged with LGG and the remaining mice with sterile PBS. Body weight and food intake were recorded weekly. Fecal pellets were collected aseptically one week before, then one and three weeks post inoculation, then stored (−80° C.) for later analysis. Feces were also collected twice a week then analyzed immediately to monitor gnotobiotic status. All mice were sacrificed three weeks post inoculation, then serum, liver, ileum and colon collected.
# For LGG colonization, one cage of GF trp− mice and one cage of GF trp+ were orally gavaged with 200 μl of LGG (10^8 CFU/ml) in sterile PBS (LGG trp− and LGG trp+, respectively) while control GF received 200 μl sterile PBS (PBS trp− and PBS trp+).
# Total RNA was isolated from mouse ileum then purified with RNeasy Plus universal kit (Qiagen, Hilden, Germany) following manufacturer's instructions. […] For global assessment of mouse RNA levels, total RNA was subjected to two rounds of poly(A) selection using oligo (dT) 25 magnetic beads (New England Biolabs [NEB], Ipswich, MA). Illumina-compatible RNA-seq libraries were constructed using the NEBNext Ultra II RNA library prep with sample purification beads (Cat. No. E7775) and NEB Next Multiplex Oligos for Illumina (dual index primers set 1; Cat. No. E7600) according to the manufacturer's instructions. Poly(A) selection and library quality were assessed using TapeStation 2200 (Agilent Technologies, Santa Clara, CA), and libraries were quantified using Qubit 4.0 fluorometer (Thermo Fisher, Waltham, MA). The prepared libraries were sequenced on an Illumina NextSeq 500 instrument (Illumina, San Diego, CA). CLC Genomics Workbench version 20.0.4 (Qiagen, Venlo, Netherlands) was used for RNA-seq analysis. […]
# [1] = system: polarized human Caco-2-BBE cells; test: Nitric oxide production in polarized Caco-2-BBE cells; assay type: cell-based; settings: 24 h exposure, 5% LGG supernatant or single metabolites
# Protocol: Lastly, NOS2 activity was analyzed in cells treated with an LGG supernatant (orange bar, FIG. 15).
# [2] = system: human-derived Caco-2 cells; test: In vitro transwell screening in Caco-2 cells, barrier disrupted by Clostridium difficile toxin (TEER and FITC-dextran permeability); assay type: cell-based; settings: applied in the basolateral compartment, TOX
# ZO-1 (Tjp1) and Ocln = test: Intestinal organoids treated with LPS and metabolites: tight junction (TJ) expression, RT-qPCR and immunostaining; assay type: cell-based, mouse
# Protocol: (§1) Intestinal organoids were isolated as previously described (Das et al., 2015; Pearce et al., 2018). Briefly, crypts were isolated from small intestine of conventional house C57BL/6 male mice (Taconic Laboratories, Hudson, NY) by shaking in isolation buffer (2 mM EDTA in PBS), then, crypts were harvested, processed, and suspended in crypt culture medium (CCM), which consisted of advanced DMEM/F12 (Life Technologies, Carlsbad, CA) supplemented with serum-free B27 (1:50; Life Technologies), N2 (1:100; Life Technologies), N-acetylcysteine (1 mM; Sigma-Aldrich, St. Louis, MO), recombinant murine epithelial growth factor (EGF, 50 ng/ml; Peprotech, Rocky Hill, NJ), Noggin (100 ng/ml; Peprotech), R-Spondin (500 ng/ml; Peprotech), Glutamax-I supplement (1:100; Life Technologies), penicillin/streptomycin (500 μg/ml; Life Technologies), and HEPES ([…]; Life Technologies). Crypts were resuspended in 70% Matrigel (density ˜450 crypts per dome, 2 domes per well in 24-well plate) and allowed to solidify at 37° C. for 20 min. CCM (1.5 mL) was then added to each well. Cultures were incubated in a humidified incubator at 37° C., and CCM was changed daily. Intestinal organoid treatment with LPS and metabolites
# (§2) We had 2 series of metabolite-treated organoid experiments, i.e., 1) organoid from conventional C57BL6 mice and 2) Ocln KO and littermate WT control as a gift from Prof. Jerrold Turner (Harvard University). […] Seeding is designated as day 0. On day 3 of culture, the existing media in the wells were completely removed before adding treatments. LPS (1 μg/mL) with or without metabolites, i.e., IPA (0.1 mM) (Li et al., 2021), IAM (200 μM) (Vyhlidalova et al., 2020), MNA (12 ng/ml) (Liu et al., 2015), CARN (20 mM) (Boldyrev et al., 2013) or ASA (1 μM) (Erez et al., 2011) were each added in CCM at known physiological concentrations, incubated for 48 hours, thereafter, organoid was harvested for RNA extraction, and paraformaldehyde fixation for immunostaining.
# (§3) Total RNA was extracted from the intestinal organoids using a commercially available kit (RNeasy Microkit; Qiagen, MD, Cat. #74004) following manufacturer's instructions. mRNA samples were converted to cDNA using Bio-Rad's iScript Reverse Transcription Supermix for RT-qPCR (Bio-Rad Laboratories, Hercules, CA, Cat. #1708840). cDNA was then used for RT-qPCR (Mx3000P. Stratagene, La Jolla, CA) to analyze several genes using Maxima SYBR Green qPCR Master Mix (Thermo Fisher Scientific, Waltham, MA) and primers (Integrated DNA Technologies, Coralville, IA). Thermal profile for three-step cycling was 10 min at 95° C. for initial denaturation; then 40 cycles of 15 sec at 95° C. for denaturation, 30 sec at 65° C. for annealing, and 30 sec at 75° C. for extension. Primers used are as follows: β-actin (Actb), forward 5′-[…]-3′ (SEQ ID NO: 5), reverse 5′-[…]-3′ (SEQ ID NO: 6); ZO-1 (Tjp1), forward 5′-[…]-3′ (SEQ ID NO: 7), reverse 5′-[…]-3′ (SEQ ID NO: 8), Ocln, forward 5′-[…]-3′ (SEQ ID NO: 9), reverse 5′-[…]-3′ (SEQ ID NO: 10); Lyz1, forward 5′-ATGGCTACCGTGGTGTCAAG-3′ (SEQ ID NO: 11), reverse 5′-CGGTCTCCACGGTTGTAGTT-3′ (SEQ ID NO: 12); Tff3, forward 5′-TAATGCTGTTGGTGGTCCTG-3′ (SEQ ID NO: 13), reverse 5′-CAGCCACGGTTGTTACACTG-3′ (SEQ ID NO: 14). All samples were normalized to β actin expression. Gene expression levels are depicted as fold change relative to the control group.
# (§4) Immunocytochemistry followed earlier work (Pearce et al., 2018). Briefly, organoids were extracted from Matrigel by using cell recovery solution (Corning, Cat. No. 354253), processed then fixed in 4% paraformaldehyde for 15 min and dehydrated with 70% ethanol and kept in 4° C. until embedded in paraffin. On the day of embedding, organoids were gently spun down to a pellet (250 g for 5 min), then the supernatant was removed, the pellet resuspended in agarose and embedded in paraffin. […]
# [3] = system: mouse intestinal organoids; test: Organoid permeability assay with 4 kDa FITC-dextran, LPS with or without metabolites; assay type: cell-based; settings: ex vivo organoids
# Protocol: as §1, §2
# Permeability assays followed earlier work (Pearce et al., 2018). Briefly, all media were removed and then organoid were incubated with CCM containing 4 kDa FITC-dextran (Sigma-Aldrich, St. Louis, MO, Cat. #46944) at a final concentration of 1.25 µM for 30 minutes at 37° C. and at 5% CO2. […] A fluorescent microscope (Nikon Eclipse TI, NY) at a 10× magnification was used to observe and capture the fluorescence within the lumen of the organoids. Using the same area as the lumen, three different background samples are measured randomly around the lumen. The three background samples measured are averaged and then subtracted from the measured fluorescence of the lumen. […] The quantification of the fluorescence was conducted using the ImageJ 1.53 (NIH, Bethesda, MD).
# [4] = system: C57BL/6 mice with DSS-induced mild colitis; test: DSS induced mild colitis treatment with LGG metabolites (2.5% DSS); assay type: in vivo, mouse; settings: metabolite i.p. twice
# Protocol: FIG. 13A-13M. IPA requires Ocln to alleviate LPS-induced leaky epithelium. FIG. 13A, experimental design. Organoids were derived from tamoxifen-inducible, intestine-specific Ocln-knockout (KO) mice generated by crossing a floxed Ocln^fl/fl with Villin-CreERT2 mice. FIG. 13B, Representative images and FIG. 13C, quantitative analysis of permeability assay. LPS was added to CCM media (basolateral side) with and without IPA […] and IAM (200 μM) (n=3 mice). *** P<0.001, compared with WT control, †P<0.05 compared with KO-control. FIG. 13D, Representative images of immunofluorescent staining of Ocln in WT control and Ocln KO conventional mice, L=lumen. MNA improves but ASA exacerbates dextran sodium sulfate (DSS)-induced leaky gut. FIG. 13E, experimental design, evaluation in vivo of metabolites (Met). Methylnicotinamide (MNA. […]) and L-argininosuccinate (ASA. 3.6 mg/kg) were administered (i.p.) twice 1-day before and 3 days after DSS treatment p.o. 4 kDa fluorescein isothiocyanate (FITC)-dextran was gavaged 4 h before sacrifice. FIG. 13F, body weight of DSS-treated mice with and without metabolites, FIG. 13G, representative images of Ocln-stained colon sections (green; left panel) and ECad (red; middle). Merged images (yellow; right panel) depict Ocln location in TJ of MNA-treated but not in DSS-only and ASA-treated colon (arrows). Quantitative fluorescent intensity of Ocln (FIG. 13H) and ECad (FIG. 13I) in the TJ, relative to DSS only controls. FIG. 13J, DSS scoring. FIG. 13K, representative H&E images of DSS, DSS+ MNA and DSS+ASA colon sections. FIG. 13L, In vivo permeability as determined by fluorescent intensity of FITC in serum. FIG. 13M, Serum level of interleukin-6.
# DSS induced mild colitis treatment with LGG metabolites. To assess in vivo impact of metabolites on gut barrier function, conventional C57BL/6 mice (8 weeks of age) were administered with 2.5% dextran sodium sulfate (DSS) in drinking water to induce mild colitis. Animals were intraperitoneal injected with either PBS vehicle, 30 mg/kg methylnicotinamide chloride, or 3.6 mg/kg argininosuccinic acid dissolved in sterile PBS at Day-1 and Day 4 of the experiment. Body weight was recorded daily. At Day 7, 4 hours before sacrifice and collection of blood, animals were gavaged with 600 mg/kg with 4 kDa FITC-dextran. Blood was collected in 5% EDTA and subsequently centrifuged at 3000 g for 5 minutes for plasma collection. FITC readings were collected by diluting 25 μl of plasma in 75 μl of PBS and analyzed using a Glomax (Promega, GMMTE9032) with Ex490/Em510-570 filter cube module. Serum concentration of interleukin-6 (Cat. No. Biolegend 431304) was also determined. Ileum and colon sections were collected, fixed in 4% paraformaldehyde, processed for embedding in paraffin wax. Pathohistology of intestine was observed by routine H&E staining.
# [5] = system: leaky gut mouse model (DSS colitis); test: DSS (3%) leaky gut colitis mouse model, metabolites i.p.; assay type: in vivo; settings: 3% DSS; i.p. every other day; listed as ASA
# Text: A moderate amount of DSS (3%) creates a leaky gut model.
# FIG. 23A, Analysis of plasma ovalbumin levels after oral ovalbumin gavage in mice treated with exogenous MNA or PBS. […] Analysis of fecal lipocalin levels in mice treated with PBS or MNA with or without DSS. […] Representative histology sections of mice treated with PBS or MNA with or without DSS. FIG. 23D, quantification of mouse histology sections scored for colitis index.
# FIG. 24A, Analysis of zonula occludens (Tjp1) and occluding (Ocln) mRNA levels after treatment with PBS or MNA with or without DSS. FIG. 24B, Western blot analysis and quantification of Ocln protein levels after treatment with PBS or MNA with or without DSS. FIG. 24C, Quantified levels of occluding in the ileum (top) and colon (bottom) using immunofluorescence antibody staining.
# Administration of DSS induces experimental colitis and disrupts gut barrier in vivo in animal models.
# Exogenous MNA administration was assessed by plasma ovalbumin levels after oral ovalbumin gavage—an accepted method to determine permeability of the gut paracellular pathway. […] (FIG. 23B) Histology sections of mice treated with or without DSS and PBS or MNA were also obtained. […] Sections from several mice were also examined by a blinded observer and scored for colitis index.
# (FIG. 24B) Using immunofluoresce antibody staining, quantified levels of occludin in the ileum and colon were also analyzed.
# [6] = system: Tff3 and Lyz1 (goblet and Paneth cells); test: Organoids: goblet and Paneth cell transcripts (Tff3, Lyz1) and cell numbers; assay type: cell-based, mouse; settings: enteroids
# Protocol: as §2, §3, §4
compound,measurement,setting,value
N[C@@H](Cc1c[nH]c2ccccc12)C(=O)O [Tryptophan],number of ileal transcripts affected by dietary trp,ileal transcriptome; GF mice,3917
same,number of ileal transcripts affected by dietary trp,ileal transcriptome; LGG mono-associated mice,5315
same,number of transcripts affected solely by dietary trp with or without LGG,"ileal transcriptome; mouse, in vivo",1496
NC(=O)NCCC[C@H](N)C(=O)O [citrulline],NO production (fluorescence intensity),[1],NO production increases
O=Cc1c[nH]c2ccccc12 [Indole-3-carboxaldehyde],"TEER, indole metabolites",[2],more effective when applied in this compartment than in the luminal
N=C(N)NCCC[C@H](N)C(=O)O [Arginine],NO production (fluorescence intensity),[1],NO production increases
"NC(=NCCC[C@H](N)C(=O)O)N[C@@H](CC(=O)O)C(=O)O [L-arginino-succinate, L-argininosuccinic acid]",TJ expression,"ZO-1 (Tjp1) and Ocln; metabolite alone, 48 hr",significantly reduced TJ expression
same,"disruption of the gut barrier, fluorescence microscopy (FIG. 11M)",[3],disrupted the gut
same,DSS-induced leaky gut (overall),[4],exacerbates
same,E-cad abundance and localization in colonic epithelial cells,[4],appeared dispersed
same,Ocln expression in colonic epithelium,[4],reduction in Ocln expression
same,body weight,[4]; vs DSS alone,greater tendency to lose weight
same,body weight loss and recovery in DSS leaky gut model,[5],"exacerbated the effects of DSS, and significantly delayed recovery; also recorded: exacerbates weight loss"
"NCCC(=O)N[C@@H](Cc1cnc[nH]1)C(=O)O [Carnosine, carnosine]",gene expression of Ocln,"ZO-1 (Tjp1) and Ocln; ex vivo, in the presence of the barrier disruptor",increased gene expression of Ocln
same,TJ expression at the protein and mRNA levels,"ZO-1 (Tjp1) and Ocln; in the presence of LPS (1 μg/mL), 48 hr",increased TJ expression
same,"disruption of the gut barrier, fluorescence microscopy (FIG. 11M)",[3],prevented disruption of the gut barrier
same,goblet and Paneth cell transcripts and cell numbers,[6],reduced goblet and Paneth cell transcripts as well as cell numbers
